Measurements from patent publication US7087641B2, “4β-1″-[(2″-substituted benzoyl) anilino]podophyllotoxin analogues useful as anticancer agents” (Council of Scientific & Industrial Research, priority 2002, dated 2006).

Each compound was assayed on tumor cell lines (assay: Cytotoxicity (in vitro)). Conditions: range of GI50 values, cell lines not named.
Format: cell-based
Text: A program was initiated in the laboratory for the design and synthesis of new 4β-aryl amino substituted podophyllotoxin congeners with enhanced antitumour activity and/or activity against etoposide resistant tumor cell lines. In these efforts new 4β-1″-[{2″-benzoyl substituted}anilino] podophyllotoxin derivatives have been synthesized and evaluated for their cytotoxicity and anticancer potency. […] The synthesis of these compounds has been carried out as described in the scheme using podophyllotoxin obtained from the resin. The cytotoxicity of 4a–4p values have been illustrated in the Table 1.
`COc1cc([C@@H]2c3cc4c(cc3[C@@H](Nc3ccccc3C(=O)c3ccccc3)[C@@H]3COC(=O)[C@H]23)OCO4)cc(OC)c1OC` [4a, 4β-1″-[2″-(Benzoyl)anilino]-4-desoxypodophyllotoxin] was tested, and the GI50 was 40 to 500 nM. With `COc1cc([C@@H]2c3cc4c(cc3[C@@H](Nc3ccc(Cl)cc3C(=O)c3ccccc3Cl)[C@@H]3COC(=O)[C@H]23)OCO4)cc(OC)c1OC` [4c, 4β-1″-[2″-(2-Chlorobenzoyl)-4″-chloroanilino]-4-desoxypodophyllotoxin] the GI50 was 59 to 876 nM. In the case of `COc1cc(C2c3cc4c(cc3C(Nc3ccc(Cl)cc3C(=O)c3ccccc3F)C3COC(=O)C23)OCO4)cc(OC)c1O` (stereo not drawn) [4j, 4′-O-Demethyl-4β-1″-[2″-(2-Fluorobenzoyl)-4″-chloroanilino]-4-desoxypodo-phyllotoxin], the GI50 is reported as 4 to 100 nM. Compound `COc1cc([C@@H]2c3cc4c(cc3[C@@H](Nc3cccc(C(=O)c5ccccc5)c3)[C@@H]3COC(=O)[C@H]23)OCO4)cc(OC)c1O` [4l, 4′-O-Demethyl-4β-1″-[3″-(benzoyl)anilino]-4-desoxypodophyllotoxin] has a GI50 of 2000 to 16000 nM. For `COc1cc([C@@H]2c3cc4c(cc3[C@@H](Nc3ccc(Cl)cc3C(=O)c3ccccc3F)[C@@H]3COC(=O)[C@H]23)OCO4)cc(OC)c1OC` [4i, 4β-1″-[2″-(2-Fluorobenzoyl)-4″-chloroanilino]-4-desoxypodophyllotoxin], the GI50 was 140 to 300 nM. Work on `COc1cc([C@@H]2c3cc4c(cc3[C@@H](Nc3ccccc3C(=O)c3ccccc3)[C@@H]3COC(=O)[C@H]23)OCO4)cc(OC)c1O` [4b, 4′-O-Demethyl-4β-1″-[2″-(benzoyl)anilino]-4-desoxypodophyllotoxin] yielded a GI50 of 15000 to 382000 nM. `COc1cc(C2c3cc4c(cc3C(Nc3ccc(Cl)cc3C(=O)c3ccccc3)C3COC(=O)C23)OCO4)cc(OC)c1O` (stereo not drawn) [4h] was tested, and the GI50 was 14000 to 270000 nM. `COc1cc(C2c3cc4c(cc3C(Nc3ccc(Cl)cc3C(=O)c3ccccc3)C3COC(=O)C23)OCO4)cc(OC)c1OC` (stereo not drawn) [4g, 4β-1″-[2″-(Benzoyl)-4″-chloroanilino]-4-desoxypodophyllotoxin] was tested, and the GI50 was 70 to 1100 nM. With `COc1cc([C@@H]2c3cc4c(cc3[C@@H](Nc3cccc(C(=O)c5ccccc5)c3)[C@@H]3COC(=O)[C@H]23)OCO4)cc(OC)c1OC` [4k, 4β-1″-[3″-(Benzoyl)anilino]-4-desoxypodophyllotoxin] the GI50 was 100 to 1000 nM. `COc1cc(C2c3cc4c(cc3C(Nc3ccc(C(=O)c5ccccc5)cc3[N+](=O)[O-])C3COC(=O)C23)OCO4)cc(OC)c1O` (stereo not drawn) [4n] gave a GI50 of 10 to 240 nM. Work on `COc1cc(C2c3cc4c(cc3C(Nc3ccc(Cl)cc3C(=O)c3ccccc3Cl)C3COC(=O)C23)OCO4)cc(OC)c1O` (stereo not drawn) [4d, 4′-O-Demethyl-4β-1″-[2″-(2-Chlorobenzoyl)-4″-chloroanilino]-4-desoxypodo-phyllotoxin] yielded a GI50 of 100 to 240 nM. For `COc1cc([C@@H]2c3cc4c(cc3[C@@H](Nc3ccc([N+](=O)[O-])cc3C(=O)c3ccccc3)[C@@H]3COC(=O)[C@H]23)OCO4)cc(OC)c1O` [4f], the GI50 was 10 to 240 nM.
